SMILES strings stand for the structures.

The record followed here is patent EP4458352A1, “EICOSAPENTAENOIC ACID ESTER DERIVATIVES FOR THE TREATMENT OF OBESITY” (Technische Universität Dresden, priority 2023, dated 2024).

In the data set the test system is primary adrenal cell cultures. Kind of data set: Steroid hormone production (LC-MS/MS) in primary adrenal cell cultures treated with SC-26196, with or without ACTH or ARA. It is filed as cell-based, WT C57BL/6J mice. Here is the method: Adrenal glands or adrenal corteces were isolated from WT C57BL/6J mice, cleaned from the surrounding fat tissue and incubated in collagenase buffer (1.6 mg/ml collagenase type I, 1.6 mg/ml BSA) for 45 min at 37 °C, while shaking at 900 rpm. Dissociated cells were passed through 22 G needle and a 100 µm cell strainer and centrifuged at 300 × g for 5 min at 4 °C. Cells of a pool from two adrenals of each mouse were distributed in four 0.2 % gelatin-precoated wells of a 96-well plate in DMEM/F12 supplemented with 1 % FBS, 50 U/mL penicillin and 50 µg/mL streptomycin. Two hours after seeding 10 µM SC-26196 (Tocris, Wiesbaden-Nordenstadt, Germany) or same amount of carrier (DMSO) were added without changing the medium. In some experiments medium was additionally supplemented with 150 µM ARA (Sigma Aldrich, Germany) or same amount of solvent (endotoxin-free water). When induction of steroidogenesis was required, the medium was changed 18 h after treatment and the cells were incubated with or without 10 ng/mL ACTH for 60 min in the presence of either 10 µM SC-26196 or DMSO. Supernatants were kept for steroid hormone measurement and cell lysates were collected for transcriptional analysis. In some experiments, primary CD31-CD45- adrenocortical cells were treated or not for 18 h with 66 µM EPA (Sigma-Aldrich). Steroid hormones in plasma and cell culture supernatants were analyzed by LC-MS/MS as previously described (71). Fifty to hundred µL plasma or cell culture supernatants were extracted by solid phase extraction using positive pressure, followed by a dry-down under gentle stream of nitrogen. Residues were reconstituted in 100 µL of the initial LC mobile phase and 10 µL were injected for detection by the triple quadrupole mass spectrometer in multiple reaction-monitoring scan mode using positive electrospray ionization. Quantification of steroid concentrations was done by comparisons of ratios of analyte peak areas to respective peak areas of stable isotope labeled internal standards obtained in samples to those of calibrators.

Where [1] appears, read: SC-26196 10 µM 18 h, then ACTH 10 ng/mL for 1 h, n=12.

Consider `N#CC(CCCN1CCN(/N=C/c2cccnc2)CC1)(c1ccccc1)c1ccccc1` [SC-26196], for which, under setting [1], the 11-deoxycorticosterone production result was “abolished”, the aldosterone production entry is “abolished”, the corticosterone production result was “abolished” and the progesterone production result is given as “abolished”. Further, the cell viability result (SC-26196-treated primary adrenal cell cultures, data not shown) is given as “without affecting cell viability”.
